Patent US11883444B2, “Inhibition of enteric infection through the modulation of microbiota” (priority 2017, dated 2024)

How the values were obtained:
Type in all cases: in vivo
[1] = system: Clostridium cluster IV and XIVa; test: Intestinal colonization of Clostridia in GF mice, qPCR of fecal DNA; conditions: metabolite in drinking water of GF mice gavaged with Clostridia consortium; FIG. 4D, 9C
S. Typhimurium ΔspiA = S. Typhimurium ΔspiA oral infection of mice: pathogen loads, cecal histology, survival
Experimental: (§1) Reconstitution of GF mice with cecal contents and defined bacteria. Cecal contents from single neonatal and 7-week old SPF mice were diluted into 50 ml (per one adult mouse) or 5 ml (per one 4, 12, 16-day old mouse) of PBS, and passed through a 70 μm cell strainer to eliminate clumps and debris under sterile conditions) under an atmosphere of 5% H2, 5% CO2 and 90% N2 in an anaerobic growth chamber (Coy Manufacturing, Grass Lake, MI). Then 200 μl of the suspension was processed by intragastric gavage into each of the recipient GF mice. Bacteroides species were anaerobically grown at 37° C. overnight in pre-reduced chopped-meat broth (Anaerobe systems, Morgan Hill, CA). E. coli were grown aerobically overnight in LB broth with shaking.
(§2) Enteric pathogen infection. Kanamycin (Km)-resistant and Streptomycin (Sm)-resistant Salmonella enterica serovar Typhimurium (S. Typhimurium) SL1344 ΔspiA was a gift from Dr. Denise Monack, Stanford University. Kanamycin (Km)-resistant wild-type Citrobacter rodentium strain DBS120 (pCRP1::Tn5) was a gift from Dr. David Schauer, Massachusetts Institute of Technology. […] Mice were infected by oral gavage with 0.2 ml of PBS containing approximately 5×10^7 CFU of S. Typhimurium, and 1×10^9 CFU of C. rodentium. […] Mouse survival was monitored for 7 days after infection. […]

fecal microbiota = test: 16S rRNA gene analysis of the fecal microbiota; conditions: adult mice; FIG. 7, FIG. 2D
Experimental: Fecal pellet DNA extraction and 16S rRNA gene sequencing and sequence curation. Fecal samples were freshly collected and DNA was extracted using the E.Z.N.A® stool DNA kit. Amplicons were generated of the V4 region within the 16S rRNA gene and the fragments were sequenced using an Illumina MiSeq (14). These sequences were curated using Mothur (v.1.35) (14, 15) and sequences were binned into operational taxonomic units (OTUs). Taxonomic assignments were determined using a naive Bayesian classifier with the Ribosomal Database Project (RDP) training set (version 10) requiring an 80% bootstrap confidence score (16). Treatment with vancomycin and SCFAs and special diet. Vancomycin (250 mg/L) was administered in the mouse drinking water for 7 days before S. Typhimurium and C. rodentium infection and the treatment was kept during the length of the experiment.

C. rodentium = C. rodentium oral infection of mice: pathogen loads in feces; conditions: adult mice, vancomycin in drinking water; day 25-30 after infection; FIG. 2B
Experimental: as §1, §2

Row | SMILES | enhanced colonization of Clostridia of IV and XIVa clusters [1] | increase of S. Typhimurium colonization in fecal and cecal contents (S. Typhimurium ΔspiA; adult mice, vancomycin in drinking water, day 1 after infection, FIG. 2C) [logs] | change of fecal microbiota composition (fecal microbiota) | higher C. rodentium pathogen loads in the feces vs untreated mice (C. rodentium) [logs] | reduction of intestinal loads of S. Typhimurium ΔspiA (S. Typhimurium ΔspiA; GF mice given succinate in drinking water and Clostridia consortium by gavage, FIG. 4E, F) [fold]
1 | CC(O)C(=O)O (stereo not shown) [lactate] | not |  |  |  | 
2 | CN[C@H](CC(C)C)C(=O)N[C@H]1C(=O)N[C@@H](CC(N)=O)C(=O)N[C@H]2C(=O)N[C@H]3C(=O)N[C@H](C(=O)N[C@H](C(=O)O)c4cc(O)cc(O)c4-c4cc3ccc4O)[C@H](O)c3ccc(c(Cl)c3)Oc3cc2cc(c3O[C@@H]2O[C@H](CO)[C@@H](O)[C@H](O)[C@H]2O[C@H]2C[C@](C)(N)[C@H](O)[C@H](C)O2)Oc2ccc(cc2Cl)[C@H]1O [vancomycin] |  | 4 to 5 | depleted the microbiota of Clostridiales and Bacteroidales and increased the abundance of Enterobacteriaceae and Lactobacillaceae | ~6 | 
3 | O=C(O)CCC(=O)O [succinate] | 4 to 5 logs |  |  |  | ~100
4 | CC(=O)O [acetate] | not |  |  |  | 
